Test results from BindingDB's records for doi:10.7270/Q2V40ST1 (Burnham Center For Chemical Genomics, 2012).

Each compound was assayed against Polyadenylate-binding protein 1 (Homo sapiens, UniProt P11940) (assay: PABP1 MLLE–PAM2 interaction inhibitors, dose response, miRNA deadenylation inhibitor project, biochemical, fluorescence polarization, Cy5-PAM2 peptide, secondary (AID 602260)).
Sequence of Polyadenylate-binding protein 1 (P11940 whole entry): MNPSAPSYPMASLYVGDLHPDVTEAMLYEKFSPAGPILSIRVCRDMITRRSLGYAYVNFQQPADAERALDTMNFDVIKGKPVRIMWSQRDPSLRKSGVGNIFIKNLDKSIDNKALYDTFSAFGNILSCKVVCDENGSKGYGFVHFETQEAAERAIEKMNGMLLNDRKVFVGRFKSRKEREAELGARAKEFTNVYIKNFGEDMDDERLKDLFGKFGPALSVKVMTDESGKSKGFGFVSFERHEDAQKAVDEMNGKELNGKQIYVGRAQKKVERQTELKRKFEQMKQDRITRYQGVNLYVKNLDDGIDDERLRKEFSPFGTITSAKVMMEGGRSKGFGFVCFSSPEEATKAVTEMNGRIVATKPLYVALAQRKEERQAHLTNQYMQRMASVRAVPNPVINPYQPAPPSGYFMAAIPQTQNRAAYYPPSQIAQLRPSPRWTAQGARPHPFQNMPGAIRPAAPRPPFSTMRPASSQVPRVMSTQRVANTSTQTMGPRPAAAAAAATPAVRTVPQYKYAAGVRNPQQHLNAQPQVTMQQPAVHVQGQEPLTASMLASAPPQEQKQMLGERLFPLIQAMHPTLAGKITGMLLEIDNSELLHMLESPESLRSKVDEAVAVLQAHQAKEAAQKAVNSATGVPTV

IC50, > 66 µM:
CCOC(=O)c1ccc(NC(=O)Cc2sc3ncnn3c2O)cc1
O=C(O)CSc1cc(O)n(-c2ccc(Cl)c(Cl)c2)c1O
Cc1ccc(NC(=O)Cc2sc(=O)n(-c3ccccc3)c2O)cc1
COc1cc2c(cc1OC)C(c1ccccc1O)N(c1cc(O)n(-c3ccccc3)c1O)CC2 (stereo not drawn)
O=C(Cc1sc(=O)n(-c2ccccc2)c1O)Nc1ccccc1 [2-(2,4-diketo-3-phenyl-thiazolidin-5-yl)-N-phenyl-acetamide]
CCSc1sccc1C1C2=C(CCCC2=O)N(c2cccnc2)C(=N)C1C#N (stereo not drawn) [2-azanyl-4-(2-ethylsulfanylthiophen-3-yl)-5-oxidanylidene-1-pyridin-3-yl-4,6,7,8-tetrahydroquinoline-3-carbonitrile]
N#CC1C(=N)C2=C(N3CCCCC3)CCCC2C1(C#N)C#N (stereo not drawn) [3-Amino-4-piperidin-1-yl-5,6,7,7a-tetrahydro-indene-1,1,2-tricarbonitrile]
CCOc1cc(C2C3=C(CCCC3=O)N=C3CCCC(=O)C32)ccc1OCCO (stereo not drawn) [9-[3-ethoxy-4-(2-hydroxyethoxy)phenyl]-2,3,4,5,6,7,9,10-octahydroacridine-1,8-dione]
COc1ccc(NC(=O)Cc2sc3ncnn3c2O)cc1 [MLS000115464]
Cc1cc(C(F)(F)F)nc(SCC(=O)Nc2nc(O)c(C)s2)n1 [N-(5-methyl-4-oxidanylidene-1,3-thiazol-2-yl)-2-[4-methyl-6-(trifluoromethyl)pyrimidin-2-yl]sulfanyl-ethanamide]
CC(C)C1=NC(=O)NC2CCCCC12 (stereo not drawn) [SMR000060291]
COc1ccc(C2=Nc3nnnn3C(c3ccc(F)cc3)C2)cc1 (stereo not drawn) [SMR000108015]
CCOC(=O)CC1=C(C(=O)OCC)C(c2ccc(C)o2)C(C#N)C(=N)O1 (stereo not drawn) [ethyl 6-amino-5-cyano-2-(2-ethoxy-2-oxoethyl)-4-(5-methyl-2-furyl)-4H-pyran-3-carboxylate]
